The values that follow come from the Kinase Knowledgebase extract (Sharma et al. 2016).

In this test the target is PIK3CA (human) (UniProt P42336). Briefly: Inhibition of PIK3CA Kinase Activity.
Chain of PIK3CA (human) (P42336 whole entry, looked up): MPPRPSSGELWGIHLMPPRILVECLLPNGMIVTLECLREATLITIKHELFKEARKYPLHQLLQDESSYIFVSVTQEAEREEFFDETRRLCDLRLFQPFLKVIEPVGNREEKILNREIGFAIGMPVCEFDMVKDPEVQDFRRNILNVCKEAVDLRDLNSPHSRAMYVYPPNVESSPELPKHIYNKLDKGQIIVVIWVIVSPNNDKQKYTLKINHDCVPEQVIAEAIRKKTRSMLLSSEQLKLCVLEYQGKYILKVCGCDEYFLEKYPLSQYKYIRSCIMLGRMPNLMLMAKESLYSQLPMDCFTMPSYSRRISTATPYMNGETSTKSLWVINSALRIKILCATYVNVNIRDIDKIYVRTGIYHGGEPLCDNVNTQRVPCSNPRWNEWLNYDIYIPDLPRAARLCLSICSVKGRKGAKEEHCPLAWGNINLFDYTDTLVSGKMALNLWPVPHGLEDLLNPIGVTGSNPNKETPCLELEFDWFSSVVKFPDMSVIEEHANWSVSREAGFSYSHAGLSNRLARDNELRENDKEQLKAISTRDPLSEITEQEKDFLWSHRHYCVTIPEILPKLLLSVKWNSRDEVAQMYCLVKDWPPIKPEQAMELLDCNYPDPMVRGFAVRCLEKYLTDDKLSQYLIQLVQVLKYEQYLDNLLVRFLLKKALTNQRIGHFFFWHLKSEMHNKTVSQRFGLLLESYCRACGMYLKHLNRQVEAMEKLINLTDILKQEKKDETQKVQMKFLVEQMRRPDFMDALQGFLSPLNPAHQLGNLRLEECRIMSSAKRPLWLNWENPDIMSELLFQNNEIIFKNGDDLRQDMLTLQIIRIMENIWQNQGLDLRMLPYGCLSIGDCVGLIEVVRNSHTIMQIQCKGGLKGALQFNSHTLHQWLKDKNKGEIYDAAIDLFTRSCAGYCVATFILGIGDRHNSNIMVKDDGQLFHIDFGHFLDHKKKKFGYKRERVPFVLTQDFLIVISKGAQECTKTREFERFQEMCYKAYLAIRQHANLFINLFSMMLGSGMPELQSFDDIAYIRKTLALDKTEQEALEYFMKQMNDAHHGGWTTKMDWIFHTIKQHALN

Broadly, the IC50 is the point on the concentration scale where inhibition reaches its midpoint. Higher therefore signals weaker potency. In the case of `Cc1ncnc(N2CCOc3ccc(-c4ccc(C(N)=O)cc4)cc3C2)c1Cc1ccc(F)cc1`, the half-maximal inhibitory concentration (IC50) fell in the range of 10 to 50 nM.
As for `Cc1nc2ccc(-c3ccc4c(c3)CN(c3ncnc5c3CC(C)(C)CC5)CCO4)cc2[nH]1`, the figure is 10 to 50 nM; as for `Cc1ccc2c(N3CCOc4ccc(-c5ccc6nc(C)[nH]c6c5)cc4C3)ncnc2c1`, 10 to 50 nM.
As for `CC1(C)CCc2ncnc(N3CCOc4ccc(-c5cnc(N)c(S(=O)(=O)N6CCC(C)(N)C6)c5)cc4C3)c2C1` (stereo unspecified), the figure is 10 to 50 nM; as for `Cc1nc2ncc(-c3ccc4c(c3)CN(c3nc(CNCC(F)(F)F)nc5c3CC(C)(C)CC5)CCO4)cc2[nH]1`, 50 to 250 nM; as for `c1ccc2c(N3CCOc4ccc(-c5ccc6nc[nH]c6c5)cc4C3)ccnc2c1`, 10 to 50 nM.
Under `Cc1nc2cc(-c3ccc4c(c3)CN(c3nc(CN(C)C)nc(C)c3-c3ccccc3)CCO4)ccc2[nH]1` stands 50 to 250 nM; under `CCOC(=O)Nc1nc2ncc(-c3ccc4c(c3)CN(c3ncnc5c3CC(C)(C)CC5)CCO4)cc2[nH]1`, 50 to 250 nM; under `CN(CCO)S(=O)(=O)c1cc(-c2ccc3c(c2)CN(c2ncnc4c2CC(C)(C)CC4)CCO3)cnc1N`, at most 10 nM.
Take `COCCOc1ccc(-c2ccc3c(c2)CN(c2nc(CN(C)C)nc4c2CC(C)(C)CC4)CCO3)cc1OC`: the IC50 lay in the range of 50 to 250 nM.
As for `CC1(C)CCc2ncnc(N3CCOc4ccc(-c5cnc(N)c(NS(C)(=O)=O)c5)cc4C3)c2C1`, the figure is 50 to 250 nM; as for `COc1cc2nccc(N3CCOc4ccc(-c5cnc6nc(N)[nH]c6c5)cc4C3)c2cc1OC`, at most 10 nM.
As for `Cc1nc(N)nc(N2CCOc3ccc(-c4cnc5[nH]cnc5c4)cc3C2)c1Cc1ccc(F)cc1`, the figure is at most 10 nM; as for `CC1(C)CCc2ncnc(N3CCOc4ccc(-c5cnc(N)c(S(=O)(=O)NC[C@H]6C[C@H]7CNC[C@H]7C6)c5)cc4C3)c2C1`, 50 to 250 nM.
Regarding `Cc1nc(CN(C)C)nc(N2CCOc3ccc(-c4cnc5sc(N)nc5c4)cc3C2)c1CC(C)C`, the IC50 is 50 to 250 nM.
Under `CCNc1nc2ccc(-c3ccc4c(c3)CN(c3nc(C)nc5cc(OC)ccc35)CCO4)cc2[nH]1` stands at most 10 nM; under `COc1ccc2c(N3CCOc4ccc(-c5cnc(Cl)c(NS(C)(=O)=O)c5)cc4C3)ncnc2c1`, at most 10 nM; under `CC1(C)CCc2ncnc(N3CCOc4ccc(-c5cnc(N)c(S(=O)(=O)NCC6CCCNC6)c5)cc4C3)c2C1` (stereo unspecified), 10 to 50 nM.
As for `CC1(C)CCc2ncnc(N3CCOc4ccc(-c5cnc(N)c(S(=O)(=O)O)c5)cc4C3)c2C1`, the IC50 is 50 to 250 nM.
Under `CCCc1nc2ccc(-c3ccc4c(c3)CN(c3ccnc5ccccc35)CCO4)cc2[nH]1` stands 50 to 250 nM; under `CCNc1nc2ccc(-c3ccc4c(c3)CN(c3nc(C)nc5cc(O)ccc35)CCO4)cc2[nH]1`, at most 10 nM.
Under `CC1(C)CCc2ncnc(N3CCOc4ccc(-c5cnc(Cl)c(CS(C)(=O)=O)c5)cc4C3)c2C1` stands 250 to 1000 nM; under `Cc1nc2ncc(-c3ccc4c(c3)CN(c3ncnc(C)c3C)CCO4)cc2[nH]1`, 50 to 250 nM.
The molecule `Cc1nc2cc(-c3ccc4c(c3)CN(c3nc(CN5CCCC5)nc5c3CC(C)(C)CC5)CCO4)cnc2[nH]1` had an IC50 of at most 10 nM.
Under `CCNc1nc2ccc(-c3ccc4c(c3)CN(c3ccnc5ccccc35)CCO4)cc2[nH]1` stands at most 10 nM; under `Cc1nc2ncc(-c3ccc4c(c3)CN(c3ncnc5c3CC[C@H](C)C5)CCO4)cc2[nH]1`, 10 to 50 nM.
The molecule `COc1cc2nccc(N3CCOc4ccc(-c5ccc6nc(N)[nH]c6c5)cc4C3)c2cc1OC` had a concentration for half-maximal inhibition (IC50) of 10 to 50 nM.
Under `Cc1ccc(Cc2c(C)ncnc2N2CCOc3ccc(-c4ccc5nc(C)[nH]c5c4)cc3C2)cc1` stands 50 to 250 nM.
Under `CNc1ncc(-c2ccc3c(c2)CN(c2ncnc4c2CC(C)(C)CC4)CCO3)cc1NS(C)(=O)=O` stands 50 to 250 nM; under `Cc1ncnc(N2CCOc3ccc(-c4cnc5nc[nH]c5c4)cc3C2)c1Cc1ccc(F)cc1`, 10 to 50 nM.
In the case of `c1ccc2c(N3CCOc4ccc(-c5ccc6[nH]ncc6c5)cc4C3)ccnc2c1`, the IC50 was 250 to 1000 nM.
